# Data published in article PMC10488193, “Evaluation of the Chemical Stability, Membrane Permeability and Antiproliferative Activity of Cyclic Diarylheptanoids from European Hornbeam (Carpinus betulus L.)” (International Journal of Molecular Sciences, 2023).
# Several values for one entry are separate records, joined by “and”; a condition that tells them apart may be missing. Equal values may be shown once. Entries after “also recorded” stand apart in the source; their conditions may differ. Read-outs that look alike come from different tables or passages of the source. Marks after values point to notes of the source that are not given here.
# Assays:
# [1] = Aqueous stability at biorelevant pH values, 37 °C (UHPLC-DAD); type: physicochemical; conditions: for half-life at 100 µM / degradation rate constant k: first-order; for half-life at 100 µM: read-out: half-life t1/2 (converted)
# Method: (§1) For the analysis of the samples from the chemical stability as well as the PAMPA studies, sample concentrations were determined using our previously developed ultrahigh-performance liquid chromatography–diode array detection (UHPLC-DAD) method validated for linearity, precision and accuracy. Briefly, an ACQUITY UPLC H-Class PLUS System hyphenated with a quaternary solvent delivery pump (QSM), an auto-sampler manager (FTN), a column compartment (CM) and a photodiode array (PDA) detector (Waters Corporation) was employed. Stationary phase: Acquity BEH C18 column (100 × 2.1 mm i.d., 1.7 µm; Waters Corporation), column temperature: 30 °C. The mobile phase consisted of 0.3% acetic acid in water (eluent A) and acetonitrile (eluent B). The following gradient elution was applied at a flow rate of 0.3 mL/min: 0 min 12.0% B, 19.0 min 13.5% B, 25.5 min 75.0% B, 26.0 min 100.0% B, 28.0 min 100.0% B, 28.5 min 12.0% B.
# The buffers modelling the gastric fluid (pH 1.2), the intestinal fluid (pH 6.8) and the blood and the tissues (pH 7.4) were prepared as follows. Buffer pH = 1.2: 1.0 g NaCl and 3.5 mL HCl dissolved in distilled water, final volume: 500.0 mL. Buffer pH = 6.8: 20.2 g Na2HPO4∙7H2O and 3.4 g NaH2PO4∙H2O dissolved in distilled water, final volume: 1000.0 mL, pH adjustment with 0.5 M NaOH or 0.5 M HCl. Buffer pH = 7.4: one PBS tablet dissolved in 200.0 mL distilled water. The stock solutions of compounds 1–4 were prepared with dimethyl sulfoxide (DMSO) at a concentration of 10.0 mM. The stock solutions were diluted 100-fold with each buffer separately to obtain the working solutions (297.0 μL buffer + 3.0 μL stock solution). All working solutions were filtered through Phenex-RC 15 mm, 0.2 μm syringe filters (Gen-Lab Ltd., Budapest, Hungary). The samples were incubated for 81 h at 37 °C; aliquots were taken for analysis every 9 h in accordance with the time required to quantify the analytes of interest in one set of samples. The total incubation time of 81 h was applied to obtain data for ten measurement points. The previously described UHPLC-DAD method was used to examine the changes in compound concentrations (see Section 3.4).
# For the determination of pH stability, the initial AUC values were compared with the data after 9 and 81 h using paired-sample t test; significant difference was reported at p < 0.05. The effects of the pH were analysed through one-way analysis of variance (ANOVA) followed by Tukey’s post hoc HSD test (p < 0.05). All experiments were performed in triplicates (n = 3).
# (§2) We used the following equations to calculate the first-order reaction rate constant (k) and the half-life (t1/2) indicating the time required to reduce the concentration of diarylheptanoids by 50% [29]:ln (ct/c0) = −k × t(1) t1/2 = −ln 0.5 × k^−1(2) where ct is the concentration of the diarylheptanoids at time t, c0 is the initial concentration, k is the reaction rate constant, t is the treatment time.
# [2] = Storage stability in solutions and hornbeam bark extracts (UHPLC-DAD); type: physicochemical; conditions: for k / t1/2: storage 23 weeks
# Method: as §1, §2
# The chemical stability of the isolated compounds in solutions was examined at a concentration of 50 µg/mL in methanol and water (in the latter case using methanol as co-solvent, final composition: water-methanol 90:10, v/v). Furthermore, the methanol and ethyl acetate extracts of C. betulus bark (concentration 4 mg/mL) were also studied in order to assess the effects of the accompanying substances. The storage stability studies were performed at a neutral pH value. All solutions were filtered through Phenex-RC 15 mm, 0.2 μm syringe filters (Gen-Lab Ltd., Budapest, Hungary). The samples were prepared in triplicate and stored protected from light at 22 ± 2.0 °C, 5 ± 1.5 °C and −15 ± 2.0 °C for 23 weeks. Quantities of the analytes of interest were quantified at weeks 12 and 23 using the abovementioned UHPLC-DAD method (see Section 3.4).
# The effects of the temperature and the medium (i.e., solvent and accompanying substances) were analysed through one-way analysis of variance (ANOVA) followed by Tukey’s post hoc HSD test (p < 0.05). To establish the kinetic parameters t1/2 and k, Equations (1) and (2) were applied, respectively.
# [3] = sodium phosphate buffer, pH 6.8, 37 °C
# [4] = 12 weeks, 5 °C, EE (ethyl acetate extract of bark)
# [5] = 12 weeks, 5 °C, EM (methanol extract of bark)
# [6] = 12 weeks, 5 °C, SA (aqueous solution)
# [7] = 12 weeks, 5 °C, SM (methanol solution)
# [8] = 12 weeks, 22 °C, EE (ethyl acetate extract of bark)
# [9] = 12 weeks, 22 °C, EM (methanol extract of bark)
# [10] = 12 weeks, 22 °C, SA (aqueous solution)
# [11] = 12 weeks, 22 °C, SM (methanol solution)
# [12] = 12 weeks, −15 °C, EE (ethyl acetate extract of bark)
# [13] = 12 weeks, −15 °C, EM (methanol extract of bark)
# [14] = 12 weeks, −15 °C, SA (aqueous solution)
# [15] = 12 weeks, −15 °C, SM (methanol solution)
# [16] = 23 weeks, 5 °C, EE (ethyl acetate extract of bark)
# [17] = 23 weeks, 5 °C, EM (methanol extract of bark)
# [18] = 23 weeks, 5 °C, SA (aqueous solution)
# [19] = 23 weeks, 5 °C, SM (methanol solution)
# [20] = 23 weeks, 22 °C, EE (ethyl acetate extract of bark)
# [21] = 23 weeks, 22 °C, EM (methanol extract of bark)
# [22] = 23 weeks, 22 °C, SA (aqueous solution)
# [23] = 23 weeks, 22 °C, SM (methanol solution)
# [24] = 23 weeks, −15 °C, EE (ethyl acetate extract of bark)
# [25] = 23 weeks, −15 °C, EM (methanol extract of bark)
# [26] = 23 weeks, −15 °C, SA (aqueous solution)
# [27] = 23 weeks, −15 °C, SM (methanol solution)
smiles,measurement,setting,value
"O=C1CCc2ccc(O)c(c2)-c2cc(ccc2O)C[C@@H](O)[C@H](O)C1 [Compound 3, giffonin X]",relative concentration compared to the initial value,"[1]; 9 h, pH 1.2, 37 °C",100.6 ± 6.9 ^a %
same,relative concentration compared to the initial value,"[1]; 9 h, pH 6.8, 37 °C",98.9 ± 0.8 ^a %
same,relative concentration compared to the initial value,"[1]; 9 h, pH 7.4, 37 °C",82.6 ± 7.7 ^#b %
same,relative concentration compared to the initial value,"[1]; 81 h, pH 1.2, 37 °C",83.4 ± 5.3% and 83.4 ± 5.3 ^#b %
same,relative concentration compared to the initial value,"[1]; 81 h, pH 6.8, 37 °C",93.2 ± 2.0% and 93.2 ± 2.0 ^#ab %
same,relative concentration compared to the initial value,"[1]; 81 h, pH 7.4, 37 °C",46.7 ± 4.7 %
same,half-life at 100 µM,"[1]; NaCl/HCl buffer, pH 1.2, 37 °C",12.4 days
same,half-life at 100 µM,"[1]; PBS, pH 7.4, 37 °C",3.4 days
same,degradation rate constant k,"[1]; pH 1.2, 37 °C",0.00232 h⁻¹
same,degradation rate constant k,"[1]; pH 6.8, 37 °C",0.000838 h⁻¹
same,degradation rate constant k,"[1]; pH 7.4, 37 °C",0.00849 h⁻¹
same,half-life at 100 µM,[1]; [3],34.5 days
same,k,"[2]; 5 °C, SA (aqueous solution)",5.0 × 10^−4 Week^−1
same,t1/2,"[2]; 5 °C, SA (aqueous solution)",1386.29 Week
same,k,"[2]; 5 °C, SM (methanol solution)",7.10 × 10^−3 Week^−1
same,t1/2,"[2]; 5 °C, SM (methanol solution)",97.63 Week
same,concentration as compared to the initial value,[2]; [4],100.8 ± 0.5 ^#bcd %
same,concentration as compared to the initial value,[2]; [5],100.2 ± 1.1 ^bcd %
same,concentration as compared to the initial value,[2]; [6],99.3 ± 0.1 ^#bcd %
same,concentration as compared to the initial value,[2]; [7],99.0 ± 0.1 ^#bcd %
same,concentration as compared to the initial value,[2]; [8],101.6 ± 2.2 ^#bc %
same,concentration as compared to the initial value,[2]; [9],102.7 ± 0.9 ^#bc %
same,concentration as compared to the initial value,[2]; [10],96.2 ± 0.1 ^#bcd %
same,concentration as compared to the initial value,[2]; [11],84.5 ± 7.4 ^#a %
same,concentration as compared to the initial value,[2]; [12],103.5 ± 0.2 ^b %
same,concentration as compared to the initial value,[2]; [13],101.6 ± 3.1 ^#bc %
same,concentration as compared to the initial value,[2]; [14],100.1 ± 0.6 ^bcd %
same,concentration as compared to the initial value,[2]; [15],100.4 ± 1.2 ^bcd %
same,k,"[2]; 22 °C, SA (aqueous solution)",5.90 × 10^−3 Week^−1
same,t1/2,"[2]; 22 °C, SA (aqueous solution)",117.48 Week
same,k,"[2]; 22 °C, SM (methanol solution)",1.85 × 10^−2 Week^−1
same,t1/2,"[2]; 22 °C, SM (methanol solution)",37.47 Week
same,concentration as compared to the initial value,[2]; [16],100.9 ± 1.3 ^bcd %
same,concentration as compared to the initial value,[2]; [17],93.8 ± 1.3 ^#de %
same,concentration as compared to the initial value,[2]; [18],99.1 ± 0.1 ^#bcd %
same,concentration as compared to the initial value,[2]; [19],81.9 ± 1.0 ^#a %
same,concentration as compared to the initial value,[2]; [20],95.7 ± 0.5 ^#cd %
same,concentration as compared to the initial value,[2]; [21],95.6 ± 2.4 ^#cd %
same,concentration as compared to the initial value,[2]; [22],87.6 ± 0.7 ^#ae %
same,concentration as compared to the initial value,[2]; [23],67.1 ± 7.5 %
same,concentration as compared to the initial value,[2]; [24],101.1 ± 2.7 ^#bcd %
same,concentration as compared to the initial value,[2]; [25],97.6 ± 3.2 ^bcd %
same,concentration as compared to the initial value,[2]; [26],97.9 ± 2.9 ^bcd %
same,concentration as compared to the initial value,[2]; [27],95.8 ± 0.1 ^#cd %
same,k,"[2]; −15 °C, SM (methanol solution)",1.60 × 10^−3 Week^−1
same,t1/2,"[2]; −15 °C, SM (methanol solution)",433.22 Week
"O=C1CCC(=O)C(O)Cc2ccc(O)c(c2)-c2cc(ccc2O)C1 (stereo not shown) [Compound 4, 3,12,17-trihydroxytricyclo [12.3.1.1^2,6]nonadeca-1(18),2(19),3,5,14,16-hexaene-8,11-dione]","aqueous stability at pH 1.2, 6.8, 7.4 (in words)","[1]; 37 °C, up to 81 h",stable only at pH 7.4
same,relative concentration compared to the initial value,"[1]; 9 h, pH 1.2, 37 °C",68.5 ± 4.5%
same,relative concentration compared to the initial value,"[1]; 9 h, pH 6.8, 37 °C",105.8 ± 2.6 ^a %
same,relative concentration compared to the initial value,"[1]; 9 h, pH 7.4, 37 °C",102.0 ± 3.7 ^a %
same,relative concentration compared to the initial value,"[1]; 81 h, pH 1.2, 37 °C",31.0 ± 7.0%
same,relative concentration compared to the initial value,"[1]; 81 h, pH 6.8, 37 °C",88.9 ± 2.0%
same,relative concentration compared to the initial value,"[1]; 81 h, pH 7.4, 37 °C",103.1 ± 2.2 ^a %
same,half-life at 100 µM,"[1]; NaCl/HCl buffer, pH 1.2, 37 °C",2.27 days
same,degradation rate constant k,"[1]; pH 1.2, 37 °C",0.0127 h⁻¹
same,degradation rate constant k,"[1]; pH 6.8, 37 °C",0.00142 h⁻¹
same,half-life at 100 µM,[1]; [3],20.3 days
same,concentration as compared to the initial value,[2]; [4],102.0 ± 1.7%
same,concentration as compared to the initial value,[2]; [5],105.5 ± 2.5%
same,concentration as compared to the initial value,[2]; [6],100.5 ± 0.7 ^ab %
same,concentration as compared to the initial value,[2]; [7],100.1 ± 0.6 ^ab %
same,concentration as compared to the initial value,[2]; [8],106.3 ± 2.6 %
same,concentration as compared to the initial value,[2]; [9],120.9 ± 2.6 %
same,concentration as compared to the initial value,[2]; [10],100.8 ± 1.1 ^a %
same,concentration as compared to the initial value,[2]; [11],100.1 ± 0.5 ^ab %
same,concentration as compared to the initial value,[2]; [12],103.5 ± 0.8%
same,concentration as compared to the initial value,[2]; [13],102.8 ± 3.3 %
same,concentration as compared to the initial value,[2]; [14],98.6 ± 1.3 ^b %
same,concentration as compared to the initial value,[2]; [15],99.1 ± 0.7 ^ab %
same,concentration as compared to the initial value,[2]; [16],107.8 ± 2.6 %
same,concentration as compared to the initial value,[2]; [17],107.0 ± 4.1%
same,concentration as compared to the initial value,[2]; [18],100.0 ± 0.5 ^ab %
same,concentration as compared to the initial value,[2]; [19],100.3 ± 0.5 ^ab %
same,concentration as compared to the initial value,[2]; [20],108.5 ± 2.7 %
same,concentration as compared to the initial value,[2]; [21],135.7 ± 9.7 %
same,concentration as compared to the initial value,[2]; [22],100.3 ± 0.6 ^ab %
same,concentration as compared to the initial value,[2]; [23],100.2 ± 0.5 ^ab %
same,concentration as compared to the initial value,[2]; [24],108.0 ± 2.2 %
same,concentration as compared to the initial value,[2]; [25],103.6 ± 3.5%
same,concentration as compared to the initial value,[2]; [26],99.9 ± 1.2 ^ab %
same,concentration as compared to the initial value,[2]; [27],99.8 ± 1.2 ^ab %
same,storage stability in methanol and aqueous solutions (in words),"[2]; SM and SA, −15, 5, 22 °C, weeks 12 and 23",stable; also recorded: good stability
